Data from US9663478B2, “Benzotriazine oxides as drugs targeting Mycobacterium tuberculosis” (priority 2011, dated 2017).
Values after ≈ are worked out from the molar mass of the structure shown. Read-outs that look alike come from different tables or passages of the source.

Legend:
Experiment in all cases: microbe, parasite or virus in culture
Format in all cases: cell-based, Mycobacterium tuberculosis
[1] = test system: Mtb strain resistant to Streptomycin ATCC 35820; conditions: for MIC: Mycobacterium tuberculosis
[2] = test system: Mtb strain resistant to Isoniazid ATCC 35822; conditions: for MIC: Mycobacterium tuberculosis
[3] = test system: Mtb strain resistant to Kanamycin ATCC 35827; conditions: for MIC: Mycobacterium tuberculosis
[4] = test system: Mtb strain resistant to Ethionamide ATCC 35830; conditions: for MIC: Mycobacterium tuberculosis; for MIC, Mtb strain resistant to Ethionamide ATCC 35830: Table 5
[5] = test system: Mtb strain resistant to Ethambutol ATCC 35837; conditions: for MIC: Mycobacterium tuberculosis; for MIC, Mtb strain resistant to Ethambutol ATCC 35837: Table 5
[6] = test system: Mtb strain resistant to P-aminosalicyclic acid ATCC 35821; conditions: for MIC: Mycobacterium tuberculosis; for MIC, Mtb strain resistant to P-aminosalicyclic acid ATCC 35821: Table 5
[7] = ATCC35830, read-out: MIC, Mtb strain resistant to Ethionamide ATCC 35830
[8] = ATCC35820, 168 h, read-out: MIC, Mtb strain resistant to Streptomycin ATCC 35820
[9] = ATCC35837, read-out: MIC, Mtb strain resistant to Ethambutol ATCC 35837
[10] = ATCC35821, read-out: MIC, Mtb strain resistant to P-aminosalicyclic acid ATCC 35821
[11] = ATCC35830, read-out: Activity against Mtb strain resistant to Ethionamide ATCC 35830
[12] = ATCC35820, read-out: Activity against Mtb strain resistant to Streptomycin ATCC 35820
[13] = ATCC35822, read-out: Activity against Mtb strain resistant to Isoniazid ATCC 35822
[14] = ATCC35827, read-out: Activity against Mtb strain resistant to Kanamycin ATCC 35827
[15] = ATCC35821, read-out: Activity against Mtb strain resistant to P-aminosalicyclic acid ATCC 35821
[16] = ATCC35837, read-out: Activity against Mtb strain resistant to Ethambutol ATCC 35837
[17] = ATCC35822, 168 h, read-out: MIC, Mtb strain resistant to Isoniazid ATCC 35822
[18] = ATCC35827, 168 h, read-out: MIC, Mtb strain resistant to Kanamycin ATCC 35827

Compound	MIC [4, 7]	MIC [1, 8]	MIC [5, 9]	MIC [6, 10]	MIC [4, 11]	MIC [1, 12]	MIC [2, 13]	MIC [3, 14]	MIC [6, 15]	also measured
[O-][n+]1nc(N2CCCC2)[n+]([O-])c2cc3c(cc21)CCC3 [Compound 20q, 3-(pyrrolidin-1-yl)-7,8-dihydro-6H-indeno[5,6-e][1,2,4]triazine 1,4-dioxide]										MIC ([1]; ATCC35820, 168 h, Table 5, read-out: MIC, Mtb strain resistant to Streptomycin ATCC 35820): 0.16 µg/mL (≈ 0.588 µM); MIC ([2]; ATCC35822, 168 h, Table 5, read-out: MIC, Mtb strain resistant to Isoniazid ATCC 35822): 0.31 µg/mL (≈ 1.14 µM); MIC ([3]; ATCC35827, 168 h, Table 5, read-out: MIC, Mtb strain resistant to Kanamycin ATCC 35827): 0.63 µg/mL (≈ 2.31 µM)
[O-][n+]1nc(N2CCCCC2)[n+]([O-])c2cc3c(cc21)CCC3 [Compound 20r, 3-(piperidin-1-yl)-7,8-dihydro-6H-indeno[5,6-e][1,2,4]triazine 1,4-dioxide]	0.31 µg/mL (≈ 1.08 µM)	0.15 µg/mL (≈ 0.524 µM)	0.31 µg/mL (≈ 1.08 µM)	0.31 µg/mL (≈ 1.08 µM)						
CC(C)(C)Nc1n[n+]([O-])c2ccccc2[n+]1[O-] [SRI-003356]					1.25 µg/mL (≈ 5.34 µM)	1.25 µg/mL (≈ 5.34 µM)	2.5 µg/mL (≈ 10.7 µM)	2.5 µg/mL (≈ 10.7 µM)	1.25 µg/mL (≈ 5.34 µM)	
CN(CCc1ccccc1)c1n[n+]([O-])c2cc3c(cc2[n+]1[O-])CCC3 [Compound 20u, 3-(methyl(phenethyl)amino)-7,8-dihydro-6H-indeno[5,6-e][1,2,4]triazine 1,4-dioxide]	0.15 µg/mL (≈ 0.446 µM)	< 0.07 µg/mL	0.31 µg/mL (≈ 0.922 µM)	0.15 µg/mL (≈ 0.446 µM)						
CC1CCCCN1c1n[n+]([O-])c2cc3c(cc2[n+]1[O-])CCC3 (centres unmarked) [Compound 20w, 3-(2-methylpiperidin-1-yl)-7,8-dihydro-6H-indeno[5,6-e][1,2,4]triazine 1,4-dioxide]	0.31 µg/mL (≈ 1.03 µM)	0.31 µg/mL (≈ 1.03 µM)	0.62 µg/mL (≈ 2.06 µM)	0.62 µg/mL (≈ 2.06 µM)						
CN(Cc1ccccc1)c1n[n+]([O-])c2cc3c(cc2[n+]1[O-])CCC3 [SRI-012564]							< 0.07 µg/mL	0.15 µg/mL (≈ 0.465 µM)		
CS(=O)(=O)N1CCN(c2n[n+]([O-])c3cc4c(cc3[n+]2[O-])CCC4)CC1 [SRI-012568]					0.62 µg/mL (≈ 1.7 µM)	2.5 µg/mL (≈ 6.84 µM)	2.5 µg/mL (≈ 6.84 µM)	2.5 µg/mL (≈ 6.84 µM)	2.5 µg/mL (≈ 6.84 µM)	MIC [5, 16]: 2.5 µg/mL (≈ 6.84 µM)
CC1CCCCN1c1n[n+]([O-])c2cc3c(cc2[n+]1[O-])CCC3 (centres unmarked) [SRI-012567]							0.31 µg/mL (≈ 1.03 µM)	0.62 µg/mL (≈ 2.06 µM)		
[O-][n+]1nc(NC2CCC2)[n+]([O-])c2cc3c(cc21)CCCC3 [SRI-012497]					1.25 µg/mL (≈ 4.37 µM)	1.25 µg/mL (≈ 4.37 µM)	2.5 µg/mL (≈ 8.73 µM)	2.5 µg/mL (≈ 8.73 µM)	1.25 µg/mL (≈ 4.37 µM)	MIC [5, 16]: 2.5 µg/mL (≈ 8.73 µM)
CN(CCc1ccccc1)c1n[n+]([O-])c2cc3c(cc2[n+]1[O-])CCC3 [SRI-012565]							0.07 µg/mL (≈ 0.208 µM)	0.15 µg/mL (≈ 0.446 µM)		
CN(C)c1n[n+]([O-])c2cc3c(cc2[n+]1[O-])CCC3 [SRI-012563]							< 0.07 µg/mL	0.31 µg/mL (≈ 1.26 µM)		
[O-][n+]1nc(NC2CCC2)[n+]([O-])c2cc3c(cc21)CCC3 [Compound 15fd, Cyclobutyl-(5,8-dioxy-2,3-dihydro-1H-5,6,8-triaza-cyclopenta[b]naphthalen-7-yl)-amine]										MIC, Mtb strain resistant to Ethionamide ATCC 35830 [4]: 0.62 µg/mL (≈ 2.28 µM); MIC, Mtb strain resistant to Streptomycin ATCC 35820 ([1]; Table 5): 0.31 µg/mL (≈ 1.14 µM); MIC, Mtb strain resistant to Ethambutol ATCC 35837 [5]: 0.62 µg/mL (≈ 2.28 µM); MIC, Mtb strain resistant to Isoniazid ATCC 35822 ([2]; Table 5): 1.2 µg/mL (≈ 4.41 µM); MIC, Mtb strain resistant to Kanamycin ATCC 35827 ([3]; Table 5): 1.2 µg/mL (≈ 4.41 µM); MIC, Mtb strain resistant to P-aminosalicyclic acid ATCC 35821 [6]: 0.62 µg/mL (≈ 2.28 µM)
[O-][n+]1nc(N2CCCC2)[n+]([O-])c2ccccc21 [SRI-012495]							0.31 µg/mL (≈ 1.33 µM)	0.31 µg/mL (≈ 1.33 µM)		
CCN(CC)c1n[n+]([O-])c2ccccc2[n+]1[O-] [SRI-009728]					0.16 µg/mL (≈ 0.683 µM)	0.31 µg/mL (≈ 1.32 µM)	0.31 µg/mL (≈ 1.32 µM)	0.31 µg/mL (≈ 1.32 µM)	0.31 µg/mL (≈ 1.32 µM)	MIC [5, 16]: 0.31 µg/mL (≈ 1.32 µM)
[O-][n+]1nc(N2CCCC2)[n+]([O-])c2ccccc21 [Compound 17q, 3-(pyrrolidin-1-yl)benzo[e][1,2,4]triazine 1,4-dioxide]	0.31 µg/mL (≈ 1.33 µM)	0.02 µg/mL (≈ 0.0861 µM)	0.31 µg/mL (≈ 1.33 µM)	0.62 µg/mL (≈ 2.67 µM)						
O=S1(=O)CCN(c2n[n+]([O-])c3cc4c(cc3[n+]2[O-])CCC4)CC1 [SRI-012566]					0.62 µg/mL (≈ 1.84 µM)	2.5 µg/mL (≈ 7.43 µM)	2.5 µg/mL (≈ 7.43 µM)	2.5 µg/mL (≈ 7.43 µM)	2.5 µg/mL (≈ 7.43 µM)	MIC [5, 16]: 2.5 µg/mL (≈ 7.43 µM)
CCNc1n[n+]([O-])c2cc3c(cc2[n+]1[O-])CCC3 [SRI-012286]					1.25 µg/mL (≈ 5.08 µM)	0.63 µg/mL (≈ 2.56 µM)	2.5 µg/mL (≈ 10.2 µM)	1.25 µg/mL (≈ 5.08 µM)	1.25 µg/mL (≈ 5.08 µM)	MIC [5, 16]: 1.25 µg/mL (≈ 5.08 µM)
CCNc1n[n+]([O-])c2cccc(C)c2[n+]1[O-] [Compound 15ea, Ethyl-(5-methyl-1,4-dioxy-benzo[1,2,4]triazin-3-yl)-amine]										MIC, Mtb strain resistant to Ethionamide ATCC 35830 [4]: 0.31 µg/mL (≈ 1.41 µM); MIC, Mtb strain resistant to Streptomycin ATCC 35820 ([1]; Table 5): 0.16 µg/mL (≈ 0.727 µM); MIC, Mtb strain resistant to Ethambutol ATCC 35837 [5]: 0.62 µg/mL (≈ 2.82 µM); MIC, Mtb strain resistant to Isoniazid ATCC 35822 ([2]; Table 5): 0.62 µg/mL (≈ 2.82 µM); MIC, Mtb strain resistant to Kanamycin ATCC 35827 ([3]; Table 5): 0.62 µg/mL (≈ 2.82 µM); MIC, Mtb strain resistant to P-aminosalicyclic acid ATCC 35821 [6]: 0.31 µg/mL (≈ 1.41 µM)
CN(C)c1n[n+]([O-])c2cc3c(cc2[n+]1[O-])CCC3 [Compound 20s, 3-(dimethylamino)-7,8-dihydro-6H-indeno[5,6-e][1,2,4]triazine 1,4-dioxide]	0.15 µg/mL (≈ 0.609 µM)	< 0.07 µg/mL	0.31 µg/mL (≈ 1.26 µM)	0.15 µg/mL (≈ 0.609 µM)						
CCNc1n[n+]([O-])c2cc3c(cc2[n+]1[O-])CCCC3 [SRI-012496]					1.25 µg/mL (≈ 4.8 µM)	1.25 µg/mL (≈ 4.8 µM)	1.25 µg/mL (≈ 4.8 µM)	1.25 µg/mL (≈ 4.8 µM)	1.25 µg/mL (≈ 4.8 µM)	MIC [5, 16]: 1.25 µg/mL (≈ 4.8 µM)
CCNc1n[n+]([O-])c2cc3c(cc2[n+]1[O-])CCC3 [Compound 15fa, 3-(ethylamino)-7,8-dihydro-6H-indeno[5,6-e][1,2,4]triazine 1,4-dioxide]	1.2 µg/mL (≈ 4.87 µM)	0.63 µg/mL (≈ 2.56 µM)	1.2 µg/mL (≈ 4.87 µM)	1.2 µg/mL (≈ 4.87 µM)						MIC [2, 17]: 2.5 µg/mL (≈ 10.2 µM); MIC [3, 18]: 1.2 µg/mL (≈ 4.87 µM)
CC(C)(C)Nc1n[n+]([O-])c2ccccc2[n+]1[O-] [Compound 8c, 3-(tert-butylamino)benzo[e][1,2,4]triazine 1,4-dioxide]	1.2 µg/mL (≈ 5.12 µM)	1.2 µg/mL (≈ 5.12 µM)	2.5 µg/mL (≈ 10.7 µM)	1.2 µg/mL (≈ 5.12 µM)						
CN(Cc1ccccc1)c1n[n+]([O-])c2cc3c(cc2[n+]1[O-])CCC3 [Compound 20t, 3-(benzyl(methyl)amino)-7,8-dihydro-6H-indeno[5,6-e][1,2,4]triazine 1,4-dioxide]	0.07 µg/mL (≈ 0.217 µM)	< 0.07 µg/mL	0.15 µg/mL (≈ 0.465 µM)	0.07 µg/mL (≈ 0.217 µM)						
[O-][n+]1nc(NC2CC3CCC2C3)[n+]([O-])c2cc3c(cc21)CCCC3 (centres unmarked) [SRI-012498]					1.25 µg/mL (≈ 3.83 µM)	1.25 µg/mL (≈ 3.83 µM)	2.5 µg/mL (≈ 7.66 µM)	1.25 µg/mL (≈ 3.83 µM)	1.25 µg/mL (≈ 3.83 µM)	MIC [5, 16]: 1.25 µg/mL (≈ 3.83 µM)
[O-][n+]1nc(N2CCCCC2)[n+]([O-])c2cc3c(cc21)CCC3 [SRI-012562]							0.15 µg/mL (≈ 0.524 µM)	0.31 µg/mL (≈ 1.08 µM)		
[O-][n+]1nc(N2CCCC2)[n+]([O-])c2cc3c(cc21)CCC3 [SRI-012530]					0.62 µg/mL (≈ 2.28 µM)	0.16 µg/mL (≈ 0.588 µM)	0.31 µg/mL (≈ 1.14 µM)	0.63 µg/mL (≈ 2.31 µM)	0.31 µg/mL (≈ 1.14 µM)	MIC [5, 16]: 0.62 µg/mL (≈ 2.28 µM)
[O-][n+]1nc(NC2CCC2)[n+]([O-])c2cc3c(cc21)CCC3 [SRI-012403]							1.25 µg/mL (≈ 4.59 µM)	1.25 µg/mL (≈ 4.59 µM)		
CCNc1n[n+]([O-])c2cc(C)c(OC)cc2[n+]1[O-] [Compound 15ga, 3-(ethylamino)-6-methoxy-7-methylbenzo[e][1,2,4]triazine 1,4-dioxide]	1.2 µg/mL (≈ 4.8 µM)	1.2 µg/mL (≈ 4.8 µM)	1.2 µg/mL (≈ 4.8 µM)	1.2 µg/mL (≈ 4.8 µM)						MIC [2, 17]: 1.2 µg/mL (≈ 4.8 µM); MIC [3, 18]: 1.2 µg/mL (≈ 4.8 µM)
